Patent US20100168067A1, “BIOMARKERS FOR BISPHOSPHONATE-RESPONSIVE BONE DISORDERS” (UCL BUSINESS PLC, priority 2006, published 2010)

System: total hip mineralisation in subjects treated for OP
[1] = response by genotype TT vs TG/GG at rs2297480, annualised change in total hip densitometry, 95% CI in brackets

Protocol: Genetic samples were obtained from subjects enrolled in an ongoing clinical programme for treatment of OP through the use of regular intravenous Pamidronate (30 mg three monthly).
By such methodology, 53 subjects (each with two densitometric estimates taken in the first 24 month of Pamidronate therapy) were respectively assigned drug response phenotypes according to their display of ongoing demineralisation (‘response failure’) or stable or improving mineralising (‘response success’). This was achieved by comparison of derived annualised rates of change in projected densitometric estimates of total hip mineralisation.
DNA was extracted from blood samples using standard organic phase methods and PCR amplification and DNA sequencing was carried out using standard protocols (dye-terminator sequencing using an ABI3100 automated DNA sequencer).

SMILES: NCCC(O)(P(=O)(O)O)P(=O)(O)O [Pamidronate]
- number of subjects with 'response failure' (ongoing demineralisation) (TT genotype at rs2297480, intravenous Pamidronate 30 mg three monthly, first 24 months, 53 subjects): 2
- odds ratio for the >-2.7 cutoff [1]: 12.0833 (95% CI: 2.2961 to 63.5874)
- odds ratio for the pos/neg cutoff [1]: 3.1818 (95% CI: 1.0192 to 9.9327)
